pIC50: −log10 of the molar value.
Legend:
Mus musculus [1] = assay: In vivo antitumor activity against murine sarcoma 180 cells at an optimal dose of 16 mg/kg.; assay type: functional
Mus musculus [2] = assay: In vivo antitumor activity against lymphocytic leukemia P388 in mice expressed as maximal increase in life span at an optimal dose of 8 mg/kg.; assay type: functional
HeLa = assay: In vitro antiproliferative activity against HeLa S3 cells.; assay type: functional, cell-based; settings: Homo sapiens
Mus musculus [3] = assay: Antitumor activity against human HCT116 tumor cells, at a dose of 12 mg/kg upon i.v. administration in nude mice; assay type: functional; settings: route intravenous
Mus musculus [4] = assay: In vivo antitumor activity against murine sarcoma 180 cells at an optimal dose of 8 mg/kg.; assay type: functional
Mus musculus [5] = assay: In vivo antitumor activity against lymphocytic leukemia P388 in mice expressed as maximal increase in life span at an optimal dose of 4 mg/kg.; assay type: functional
Mus musculus [6] = assay: Antitumor activity against human A-2780 tumor cells, at a dose of 12 mg/kg upon i.v. administration in nude mice; assay type: functional; settings: route intravenous
Mus musculus [7] = assay: Antitumor activity against human Lu-65 tumor cells, at a dose of 12 mg/kg upon i.v. administration in nude mice; assay type: functional; settings: route intravenous
Mus musculus [8] = assay: In vivo antitumor activity against lymphocytic leukemia P388 in mice expressed as maximal increase in life span at an optimal dose of 16 mg/kg.; assay type: functional
Mus musculus [9] = assay: In vivo antitumor activity against murine sarcoma 180 cells at an optimal dose of 2 mg/kg.; assay type: functional
Mus musculus [10] = assay: In vivo antitumor activity against lymphocytic leukemia P388 in mice expressed as maximal increase in life span at an optimal dose of 1 mg/kg.; assay type: functional
Mus musculus [11] = assay: Antitumor activity against human HCT116 tumor cells, at a dose of 8.0 mg/kg upon i.v. administration in nude mice; assay type: functional; settings: route intravenous
Mus musculus [12] = assay: Antitumor activity against human A-2780 tumor cells, at a dose of 8.0 mg/kg upon i.v. administration in nude mice; assay type: functional; settings: route intravenous
Mus musculus [13] = assay: Antitumor activity against human Lu-65 tumor cells, at a dose of 8.0 mg/kg upon i.v. administration in nude mice; assay type: functional; settings: route intravenous
Mus musculus [14] = assay: Antitumor activity against human HCT116 tumor cells, at a dose of 5.3 mg/kg upon i.v. administration in nude mice; assay type: functional; settings: route intravenous
Mus musculus [15] = assay: In vivo antitumor activity against murine sarcoma 180 cells at an optimal dose of 4 mg/kg.; assay type: functional
Mus musculus [16] = assay: Antitumor activity against human Lu-65 tumor cells, at a dose of 5.3 mg/kg upon i.v. administration in nude mice; assay type: functional; settings: route intravenous
Mus musculus [17] = assay: Antitumor activity against human A-2780 tumor cells, at a dose of 5.3 mg/kg upon i.v. administration in nude mice; assay type: functional; settings: route intravenous
Mus musculus [18] = assay: Antitumor activity against human A-2780 tumor cells, at a dose of 8 mg/kg upon i.v. administration in nude mice; assay type: functional; settings: route intravenous
Mus musculus [19] = assay: Antitumor activity against human Lu-65 tumor cells, at a dose of 8 mg/kg upon i.v. administration in nude mice; assay type: functional; settings: route intravenous
Mus musculus [20] = assay: Antitumor activity against human HCT116 tumor cells, at a dose of 8 mg/kg upon i.v. administration in nude mice; assay type: functional; settings: route intravenous
Mus musculus [21] = assay: In vivo antitumor activity against murine sarcoma 180 cells at an optimal dose of mg/kg.; assay type: functional
Mus musculus [22] = assay: Antitumor activity against human A-2780 tumor cells, at a dose of 18 mg/kg upon i.v. administration in nude mice; assay type: functional; settings: route intravenous
Mus musculus [23] = assay: Antitumor activity against human HCT116 tumor cells, at a dose of 18 mg/kg upon i.v. administration in nude mice; assay type: functional; settings: route intravenous
Mus musculus [24] = assay: Antitumor activity against human Lu-65 tumor cells, at a dose of 18 mg/kg upon i.v. administration in nude mice; assay type: functional; settings: route intravenous
Mus musculus [25] = assay: In vivo antitumor activity against murine sarcoma 180 cells at an optimal dose of 1 mg/kg.; assay type: functional
Mus musculus [26] = assay: In vivo antitumor activity against lymphocytic leukemia P388 in mice expressed as maximal increase in life span at an optimal dose of 2 mg/kg.; assay type: functional

C/C1=C\[C@@H](OC(=O)CNC(=O)OCc2ccccc2)C(=O)/C=C/C=C/c2csc(n2)[C@@H](C)N2C(=O)C[C@@]([C@@](C)(O)C(=O)SCc3oc(=O)oc3C)(CC1)[S+]2[O-] (stereo partly specified)
T/C (Mus musculus [1]): 0.36 | ILS at 8 mg/kg (Mus musculus [2]): 98% | pIC50 (HeLa): 8.40

C/C1=C\[C@@H](OC(=O)CNC(=O)[C@@H](C)NC(=O)OCc2ccccc2)C(=O)/C=C/C=C\c2csc(n2)[C@H](C)NC(=O)C[C@@]2(CC1)[S+]([O-])SC(=O)[C@]2(C)O (stereo partly specified)
T/C (Mus musculus [1]): 0.61 | ILS at 8 mg/kg (Mus musculus [2]): 58% | pIC50 (HeLa): 7.47

C/C1=C\[C@@H](OC(=O)CNC(=O)CNC(=O)OCc2ccccc2)C(=O)/C=C/C=C\c2csc(n2)[C@H](C)NC(=O)C[C@@]2(CC1)[S+]([O-])SC(=O)[C@]2(C)O (stereo partly specified)
T/C (Mus musculus [3]): 0.48 | T/C (Mus musculus [4]): 0.3 | ILS at 4 mg/kg (Mus musculus [5]): 72% | T/C (Mus musculus [6]): 0.63 | pIC50 (HeLa): 7.64 | T/C (Mus musculus [7]): 0.3

C/C1=C\[C@@H](OC(=O)CNC(=O)CNC(=O)c2ccccc2)C(=O)/C=C/C=C/c2csc(n2)[C@@H](C)N2C(=O)C[C@@]([C@@](C)(O)C(=O)SCc3oc(=O)oc3C)(CC1)[S+]2[O-] (stereo partly specified)
T/C (Mus musculus [4]): 0.46 | ILS at 16 mg/kg (Mus musculus [8]): 90% | pIC50 (HeLa): 7.49

C/C1=C\[C@@H](OC(=O)CCNC(=O)CNC(=O)OCc2ccccc2)C(=O)/C=C/C=C\c2csc(n2)[C@H](C)NC(=O)C[C@@]2(CC1)[S+]([O-])SC(=O)[C@]2(C)O (stereo partly specified)
T/C (Mus musculus [1]): 0.69 | ILS at 16 mg/kg (Mus musculus [8]): 71% | pIC50 (HeLa): 6.82

C/C1=C\[C@@H](O)C(=O)/C=C/C=C\c2csc(n2)[C@H](C)NC(=O)C[C@@]2(CC1)[S+]([O-])SC(=O)[C@]2(C)O (stereo partly specified)
T/C (Mus musculus [9]): 0.44 | ILS at 1 mg/kg (Mus musculus [10]): 64% | pIC50 (HeLa): 7.55

C/C1=C\[C@@H](O[C@H]2CCCCO2)C(=O)/C=C/C=Cc2csc(n2)[C@@H](C)N2C(=O)C[C@@]([C@@](C)(O)C(=O)SCc3oc(=O)oc3C)(CC1)[S+]2[O-] (stereo partly specified)
T/C (Mus musculus [11]): 0.48 | T/C (Mus musculus [12]): 0.43 | T/C (Mus musculus [13]): 0.33

C/C1=C\[C@@H](OC(=O)CNC=O)C(=O)/C=C/C=C\c2csc(n2)[C@H](C)NC(=O)C[C@@]2(CC1)[S+]([O-])SC(=O)[C@]2(C)O (stereo partly specified)
T/C (Mus musculus [14]): 0.62 | ILS at 8 mg/kg (Mus musculus [2]): 56% | T/C (Mus musculus [15]): 0.46 | T/C (Mus musculus [16]): 0.43 | T/C (Mus musculus [17]): 0.29 | pIC50 (HeLa): 7.96

C/C1=C\[C@@H](OC(=O)CNC(=O)CNC(=O)OC(C)(C)C)C(=O)/C=C/C=C\c2csc(n2)[C@H](C)NC(=O)C[C@@]2(CC1)[S+]([O-])SC(=O)[C@]2(C)O (stereo partly specified)
T/C (Mus musculus [4]): 0.22 | ILS at 8 mg/kg (Mus musculus [2]): 46% | T/C (Mus musculus [18]): 0.73 | T/C (Mus musculus [19]): 0.43 | pIC50 (HeLa): 7.70 | T/C (Mus musculus [20]): 0.7

C/C1=C\[C@@H](OC(=O)CNC(=O)OCc2ccccc2)C(=O)/C=C/C=C\c2csc(n2)[C@H](C)NC(=O)C[C@@]2(CC1)[S+]([O-])SC(=O)[C@]2(C)O (stereo partly specified)
ILS at 8 mg/kg (Mus musculus [2]): 54% | T/C (Mus musculus [21]): 0.89 | pIC50 (HeLa): 8.21

C/C1=C\[C@@H](OC(=O)CNC(=O)CCNC(=O)OCc2ccccc2)C(=O)/C=C/C=C\c2csc(n2)[C@H](C)NC(=O)C[C@@]2(CC1)[S+]([O-])SC(=O)[C@]2(C)O (stereo partly specified)
T/C (Mus musculus [4]): 0.55 | ILS at 16 mg/kg (Mus musculus [8]): 76% | pIC50 (HeLa): 7.70

C/C1=C\[C@@H](OC(=O)CNC(=O)CNC(=O)OC(C)(C)C)C(=O)/C=C/C=C/c2csc(n2)[C@@H](C)N2C(=O)C[C@@]([C@@](C)(O)C(=O)SCc3oc(=O)oc3C)(CC1)[S+]2[O-] (stereo partly specified)
T/C (Mus musculus [4]): 0.39 | ILS at 4 mg/kg (Mus musculus [5]): 39% | T/C (Mus musculus [6]): 0.51 | pIC50 (HeLa): 7.85 | T/C (Mus musculus [7]): 0.33

C/C1=C\[C@@H](OC(=O)CNC(=O)CCNC(=O)OCc2ccccc2)C(=O)/C=C/C=C/c2csc(n2)[C@@H](C)N2C(=O)C[C@@]([C@@](C)(O)C(=O)SCc3oc(=O)oc3C)(CC1)[S+]2[O-] (stereo partly specified)
T/C (Mus musculus [1]): 0.15 | T/C (Mus musculus [22]): 0.46 | ILS at 16 mg/kg (Mus musculus [8]): 91% | T/C (Mus musculus [23]): 0.64 | pIC50 (HeLa): 7.96 | T/C (Mus musculus [24]): 0.48

COCCOCCOCCOCCOCCOCC(=O)O[C@@H]1/C=C(\C)CC[C@]2(CC(=O)N[C@@H](C)c3nc(cs3)/C=C\C=C\C1=O)[S+]([O-])SC(=O)[C@]2(C)O (stereo partly specified)
T/C (Mus musculus [4]): 0.3 | T/C (Mus musculus [19]): 0.2 | pIC50 (HeLa): 7.96

C/C1=C\[C@@H](OC(=O)CCNC(=O)OCc2ccccc2)C(=O)/C=C/C=C\c2csc(n2)[C@H](C)NC(=O)C[C@@]2(CC1)[S+]([O-])SC(=O)[C@]2(C)O (stereo partly specified)
T/C (Mus musculus [15]): 0.79 | ILS at 4 mg/kg (Mus musculus [5]): 53% | pIC50 (HeLa): 7.40

CC(=O)NCC(=O)O[C@@H]1/C=C(\C)CC[C@]2(CC(=O)N[C@@H](C)c3nc(cs3)/C=C\C=C\C1=O)[S+]([O-])SC(=O)[C@]2(C)O (stereo partly specified)
ILS at 4 mg/kg (Mus musculus [5]): 66% | T/C (Mus musculus [9]): 0.67 | pIC50 (HeLa): 7.89

COCCOCC(=O)O[C@@H]1/C=C(\C)CC[C@]2(CC(=O)N[C@@H](C)c3nc(cs3)/C=C\C=C\C1=O)[S+]([O-])SC(=O)[C@]2(C)O (stereo partly specified)
T/C (Mus musculus [25]): 0.72 | pIC50 (HeLa): 7.59

COCCOCCOCC(=O)O[C@@H]1/C=C(\C)CC[C@]2([C@@](C)(O)C(=O)SCc3oc(=O)oc3C)CC(=O)N([C@H](C)c3nc(cs3)/C=C/C=C/C1=O)[S+]2[O-] (stereo partly specified)
T/C (Mus musculus [4]): 0.39 | T/C (Mus musculus [16]): 0.35 | ILS at 2 mg/kg (Mus musculus [26]): 54% | pIC50 (HeLa): 8.26

C/C1=C\[C@@H](OC(=O)CCNC(=O)CCNC(=O)OCc2ccccc2)C(=O)/C=C/C=C\c2csc(n2)[C@H](C)NC(=O)C[C@@]2(CC1)[S+]([O-])SC(=O)[C@]2(C)O (stereo partly specified)
T/C (Mus musculus [1]): 0.58 | ILS at 16 mg/kg (Mus musculus [8]): 62% | pIC50 (HeLa): 7.21

C/C1=C\[C@@H](OC(=O)CNC(=O)CCNC(=O)OC(C)(C)C)C(=O)/C=C/C=C/c2csc(n2)[C@@H](C)N2C(=O)C[C@@]([C@@](C)(O)C(=O)SCc3oc(=O)oc3C)(CC1)[S+]2[O-] (stereo partly specified)
T/C (Mus musculus [1]): 0.23 | ILS at 8 mg/kg (Mus musculus [2]): 70% | pIC50 (HeLa): 7.92

C/C1=C\[C@@H](O)C(=O)/C=C/C=Cc2csc(n2)[C@@H](C)N2C(=O)C[C@@]([C@@](C)(O)C(=O)SCc3oc(=O)oc3C)(CC1)[S+]2[O-] (stereo partly specified)
ILS at 2 mg/kg (Mus musculus [26]): 65% | T/C (Mus musculus [9]): 0.67

Source: ChEMBL document CHEMBL1145735, “Synthesis and antitumor activity of novel C-8 ester derivatives of leinamycin” (Bioorg Med Chem Lett, 2003)
